Results taken from PMC9814779, “A triple farnesoid X receptor and peroxisome proliferator-activated receptor α/δ activator reverses hepatic fibrosis in diet-induced NASH in mice” (Communications Chemistry, 2020).

Test system: FXR- and PPAR-regulated gene expression in HepG2 cells
Assay: FXR- and PPAR-regulated gene expression in HepG2 cells (qRT-PCR)
Assay type: cell-based, human
Details: 12 h
Experimental: HepG2 cells (DSMZ) were grown in DMEM high glucose, supplemented with 10% FCS, 1 mM SP, penicillin (100 U/mL), and streptomycin (100 μg/mL) at 37 °C and 5% CO2 and seeded in 6-well plates (2 × 10^6 per well). After 24 h, medium was changed to Minimal Essential Medium supplemented with 1% charcoal-stripped FCS, penicillin (100 U/mL), streptomycin (100 μg/mL), and 2 mM L-glutamine. After an additional 24 h, cells were incubated with test compound 41 (0.1 µM, 0.3 µM, 1 μM), OCA (1 μM), or elafibranor (1 µM) dissolved in the same medium with 0.1% DMSO or medium with 0.1% DMSO alone as untreated control for 12 h, harvested, washed with cold phosphate-buffered saline (PBS), and then directly used for RNA extraction. C2C12 cells (American Type Culture Collection, ATCC) were grown in DMEM high glucose, supplemented with 10% FCS, 1 mM SP, penicillin (100 U/mL), and streptomycin (100 μg/mL) at 37 °C and 5% CO2 and seeded in 6-well plates (1 × 10^6 per well). Upon reaching confluence, medium was changed to Eagle’s Minimal Essential Medium supplemented with 2% horse serum, penicillin (100 U/mL), streptomycin (100 μg/mL), and 2 mM L-glutamine. Cells were then differentiated in this medium for 5 days before incubation with test compounds 41 (1 μM) or L165,041 (1 μM) dissolved in the same medium with 0.1% DMSO or medium with 0.1% DMSO alone as untreated control for 8 h. Cells were harvested, washed with cold PBS, and then directly used for RNA extraction. Total RNA was extracted from HepG2 cells or C2C12 cells using the total RNA Mini Kit (R6834-02, Omega Bio-Tek, Inc., Norcross, GA, USA). Two micrograms of extracted RNA were then reverse-transcribed into cDNA with the High-Capacity cDNA Reverse Transcription Kit (4368814, Thermo Fischer Scientific, Inc.). FXR- and PPAR-regulated gene expression was then studied by quantitative real-time PCR (qRT-PCR) analysis with a StepOnePlus System (Life Technologies, Carlsbad, CA, USA) using PowerSYBRGreen (Life Technologies; 12.5 μL per well). Each sample was set up in duplicates and repeated in four independent experiments. Data were analyzed by the comparative ΔΔCT method with glyceraldehyde 3-phosphate dehydrogenase (GAPDH) as reference gene. The following primers were used for HepG2 cells (human genes): hGAPDH: 5 ′-ATATGATTCCACCCATGGCA (fw), 5′-GATGATGACCCTTTTGGCTC (rev); hSHP: 5′-GCTGTCTGGAGTCCTTCTGG (fw), 5′-CCAATGATAGGGCGAAAGAAGAG (rev); hCYP7A1: 5′-CACCTTGAGGACGGTTCCTA (fw), 5′-CGATCCAAAGGGCATGTAGT (rev); hBSEP: 5′-CATGGTGCAAGAAGTGCTGAGT (fw), 5′-AAGCGATGAGCAACTGAAATGAT (rev); hACOX: 5′-ACT CGC AGC CAG CGT TAT G (fw), 5′-AGG GTC AGC GAT GCC AAA C (rev); hPDK4: 5′-AGAGCCTGATGGATTTGGTG (fw), 5′-GCTTGGGTTTCCTGTCTGTG (rev); hCPT1: 5′-ACAGTCGGTGAGGCCTCTTAT (fw), 5′-TCTTGCTGCCTGAATGTGAGT (rev); hFGF21: 5′-ATGGATCGCTCCACTTTGACC (fw), 5′-GGGCTTCGGACTGGTAAACAT (rev). The following primers were used for C2C12 cells (murine genes)[36]: mGAPDH: 5′-CGACTTCAACAGCAACTCCCACTCTTCC (fw), 5′-TGGGTGGTCCAGGGTTTCTTACTCCTT (rev); mPCK: 5′-TGTTTACTGGGAAGGCATCG (fw), 5′-CAGAATCTCGAGTTGGGATGG (rev); mGLUT3: 5′-CGTCCTTGAAGATTCCTGTTGA (fw), 5′-GTC ACC CAA CTA CGT CCA G (rev); mLPL: 5′-GTCAGGTTCTCTCTTGTACAGG (fw), 5′-TCTAACTGCCACTTCAACCAC (rev).

[1] = HepG2, 1 µM, vs. vehicle-treated cells

Row | Structure (SMILES) | mRNA expression of FXR-regulated genes (BSEP, SHP, CYP7A1) [1] | mRNA expression of PPAR-regulated genes (ACOX, PDK4, CPT1, FGF21) [1] | dose dependence of BSEP, PDK4 and CPT1 expression (HepG2, 0.1 µM, 0.3 µM, 1 μM)
1 | CC[C@H]1[C@@H](O)[C@@H]2[C@H](CC[C@]3(C)[C@@H]([C@H](C)CCC(=O)O)CC[C@@H]23)[C@@]2(C)CC[C@@H](O)C[C@@H]12 [OCA, 6α-ethylchenodeoxycholic acid, reference compound] | upregulation of BSEP and small heterodimer partner (SHP) mRNA as well as downregulation of CYP7A1 | slightly induced ACOX and FGF21 expression | –
2 | CC(C)(C)c1ccc(C(=O)Nc2cccc(CCC(=O)O)c2)c(NC(=O)c2ccc(-c3ccco3)cc2)c1 [compound 41, 3-(3-[4-{tert-Butyl}-2-{4-(2-furyl)}benzamido]phenyl)propanoic acid] | upregulation of BSEP and small heterodimer partner (SHP) mRNA as well as downregulation of CYP7A1 | – | dose-dependent effects
